# What was measured:
# [1] = tested on: Human immunodeficiency virus 1; experiment: Antiviral activity against HIV1 3B infected in human MT4 cells assessed as virus-induced cytopathic effect incubated for 5 days by MTT assay; format: functional, organism-based; details: Human immunodeficiency virus 1, 3B, MT4, 120 h
# [2] = tested on: Human immunodeficiency virus 1; experiment: Antiviral activity against HIV1 RES056 infected in human MT4 cells assessed as inhibition of virus-induced cytopathic effect incubated for 5 days by MTT assay; format: functional, organism-based; details: Human immunodeficiency virus 1, RES056, MT4, 120 h
# [3] = Cytotoxicity against human MT4 cells assessed as reduction in cell viability incubated for 5 days by MTT assay; format: cell-based; details: time 5 day
# [4] = Selectivity index, ratio of CC50 for human MT4 cells to EC50 for antiviral activity against HIV1 3B infected in human MT4 cells; format: toxicity, cell-based; details: read-out: Ratio CC50/EC50
# [5] = Selectivity index, ratio of CC50 for human MT4 cells to EC50 for antiviral activity against HIV1 RES056 infected in human MT4 cells; format: toxicity, cell-based; details: read-out: Ratio CC50/EC50
# [6] = tested on: Human immunodeficiency virus 1; experiment: Antiviral activity against HIV1 harboring RT L100I mutant infected in human MT4 cells assessed as inhibition of virus-induced cytopathic effect incubated for 5 days by MTT assay; format: functional, organism-based; details: Human immunodeficiency virus 1, MT4, 120 h
# [7] = tested on: Human immunodeficiency virus 1; experiment: Antiviral activity against HIV1 harboring RT K103N mutant infected in human MT4 cells assessed as inhibition of virus-induced cytopathic effect incubated for 5 days by MTT assay; format: functional, organism-based; details: Human immunodeficiency virus 1, MT4, 120 h
# [8] = tested on: Human immunodeficiency virus 1; experiment: Antiviral activity against HIV1 harboring RT Y181C mutant infected in human MT4 cells assessed as inhibition of virus-induced cytopathic effect incubated for 5 days by MTT assay; format: functional, organism-based; details: Human immunodeficiency virus 1, MT4, 120 h
# [9] = tested on: Human immunodeficiency virus 1; experiment: Antiviral activity against HIV1 harboring RT Y188L mutant infected in human MT4 cells assessed as inhibition of virus-induced cytopathic effect incubated for 5 days by MTT assay; format: functional, organism-based; details: Human immunodeficiency virus 1, MT4, 120 h
# [10] = tested on: Human immunodeficiency virus 1; experiment: Antiviral activity against HIV1 harboring RT E138K mutant infected in human MT4 cells assessed as inhibition of virus-induced cytopathic effect incubated for 5 days by MTT assay; format: functional, organism-based; details: Human immunodeficiency virus 1, MT4, 120 h
# [11] = tested on: Human immunodeficiency virus 1; experiment: Antiviral activity against HIV1 harboring RT F227L/V106Amutant infected in human MT4 cells assessed as inhibition of virus-induced cytopathic effect incubated for 5 days by MTT assay; format: functional, organism-based; details: Human immunodeficiency virus 1, MT4, 120 h
# [12] = Resistance index, ratio of EC50 for antiviral activity against HIV1 expressing RT L100I mutant infected in human MT4 cells to EC50 for antiviral activity against HIV1 3B infected in human MT4 cells; format: functional
# [13] = Resistance index, ratio of EC50 for antiviral activity against HIV1 expressing RT K103N mutant infected in human MT4 cells to EC50 for antiviral activity against HIV1 3B infected in human MT4 cells; format: functional
# [14] = Resistance index, ratio of EC50 for antiviral activity against HIV1 expressing RT Y181C mutant infected in human MT4 cells to EC50 for antiviral activity against HIV1 3B infected in human MT4 cells; format: functional
# [15] = Resistance index, ratio of EC50 for antiviral activity against HIV1 expressing RT Y188L mutant infected in human MT4 cells to EC50 for antiviral activity against HIV1 3B infected in human MT4 cells; format: functional
# [16] = Resistance index, ratio of EC50 for antiviral activity against HIV1 expressing RT E138K mutant infected in human MT4 cells to EC50 for antiviral activity against HIV1 3B infected in human MT4 cells; format: functional
# [17] = Resistance index, ratio of EC50 for antiviral activity against HIV1 expressing RT F227L/V106A mutant infected in human MT4 cells to EC50 for antiviral activity against HIV1 3B infected in human MT4 cells; format: functional
Structure (SMILES),EC50 [1] [µM],EC50 [2] [µM],CC50 at 120 h [3] [µM],selectivity ratio [4],selectivity ratio [5],EC50 [6] [µM],EC50 [7] [µM],EC50 [8] [µM],EC50 [9] [µM],EC50 [10] [µM],EC50 [11] [µM],Ratio EC50 [12],Ratio EC50 [13],Ratio EC50 [14],Ratio EC50 [15],Ratio EC50 [16],Ratio EC50 [17]
Cc1cc(C#N)cc(C)c1Oc1nc(NC2CCN(CC(=O)N3CCOCC3)CC2)nc2c1CSC2,0.154,> 64.6,64.6,420,< 1,24.4,3.73,13.4,7.45,0.627,41.2,158.7,24.2,86.9,48.4,4.1,267.3
Cc1cc(C#N)cc(C)c1Oc1nc(NC2CCN(CCN3CCOCC3)CC2)nc2c1CSC2,0.173,> 28.5,28.5,164,< 1,16.6,1.96,13.2,13.8,1.18,11.8,95.6,11.3,76.2,79.7,6.8,68.4
COc1cc2nc(NC3CCN(CCN4CCOCC4)CC3)nc(Oc3c(C)cc(C#N)cc3C)c2cc1OC,1.79,> 121,121,68,< 1,,,,,,,,,,,,
Cc1cc(C#N)cc(C)c1Oc1ccnc(NC2CCN(CCN3CCOCC3)CC2)n1,1.12,> 246,246,219,< 1,,,,,,,,,,,,
Cc1cc(C#N)cc(C)c1Oc1nc(NC2CCN(CCN3CCOCC3)CC2)nc2c1SCC2,0.114,> 43,43,376,< 1,,,,,,,,,,,,
Cc1cn([C@H]2C[C@H](N=[N+]=[N-])[C@@H](CO)O2)c(=O)[nH]c1=O [ZIDOVUDINE],0.019,0.024,> 7.48,> 397,> 311,0.006,,0.016,0.009,0.027,0.009,0.3,1,0.9,0.5,1.4,0.5
Cc1cc(C#N)cc(C)c1Oc1nc(NC2CCN(CCN3CCOCC3)CC2)nc2c1COC2,0.366,> 140,140,383,< 1,,,,,,,,,,,,
Cc1cc(C#N)cc(C)c1Oc1nc(NC2CCN(CCN3CCOCC3)CC2)nc2ccoc12,1.1,> 138,138,125,< 1,,,,,,,,,,,,
Cc1cc(C#N)cc(C)c1Oc1nc(NC2CCN(CC(=O)N3CCOCC3)CC2)nc2ccsc12,0.101,> 41.9,41.9,416,< 1,5.17,1.38,5.27,4.92,0.171,≥ 17.9,51.4,13.7,52.4,48.8,1.7,>=178.1
COc1cc2nc(NC3CCN(CC(=O)N4CCOCC4)CC3)nc(Oc3c(C)cc(C#N)cc3C)c2cc1OC,2.18,> 211,211,97,< 1,> 211,24.8,> 211,> 211,> 211,0.974,>96.8,11.4,>96.8,>96.8,>96.8,0.4
Cc1cc(C#N)cc(C)c1Oc1nc(NC2CCN(CCN3CCOCC3)CC2)nc2c1CCC2,0.188,> 49.1,49.1,261,< 1,,,,,,,,,,,,
Cc1cc(C#N)cc(C)c1Oc1nc(NC2CCN(CC(=O)N3CCOCC3)CC2)nc2ccoc12,0.327,> 125,125,383,< 1,,,,,,,,,,,,
Cc1cc(C#N)cc(C)c1Oc1nc(NC2CCN(CCN3CCOCC3)CC2)nc2ccccc12,0.502,> 26,26,52,< 1,,,,,,,,,,,,
Cc1cc(C#N)cc(C)c1Oc1ccnc(NC2CCN(CC(=O)N3CCOCC3)CC2)n1,0.141,> 143,143,1020,< 1,,,,,,,,,,,,
Cc1cc(C#N)cc(C)c1Oc1nc(NC2CCN(CC(=O)N3CCOCC3)CC2)nc2c1COC2,0.149,> 184,184,1240,< 1,,,,,,,,,,,,
Cc1cc(C#N)cc(C)c1Oc1nc(NC2CCN(CC(=O)N3CCOCC3)CC2)nc2c1CCC2,0.106,> 73.5,73.5,696,< 1,15.9,2.54,10.6,6.48,1.12,27,150.4,24.1,100.8,61.4,10.6,256
Nc1ccn([C@@H]2CS[C@H](CO)O2)c(=O)n1 [LAMIVUDINE],5.02,8.35,> 87.2,> 17,> 10,1.62,3.75,4.79,3.36,6.64,2.77,0.3,0.7,1,0.7,1.3,0.6
Cc1cc(C#N)cc(C)c1Oc1nc(NC2CCN(CC(=O)N3CCOCC3)CC2)nc2ccccc12,0.597,> 42.6,42.6,71,< 1,,,,,,,,,,,,
Cc1cc(C#N)cc(C)c1Oc1nc(NC2CCN(CC(=O)N3CCOCC3)CC2)nc2scnc12,0.14,> 129,129,919,< 1,15.1,3.74,3.06,12.1,0.703,35.9,107.7,26.7,21.8,86,5,256.1
O=C1Nc2ccc(Cl)cc2[C@@](C#CC2CC2)(C(F)(F)F)O1 [EFAVIRENZ],,,> 6.34,,,0.04,0.094,0.006,,,,,,,,,
Cc1cc(C#N)cc(C)c1Oc1nc(NC2CCN(CCN3CCOCC3)CC2)nc2scnc12,0.291,> 88.6,88.6,305,< 1,,,,,,,,,,,,
Cc1cc(C#N)cc(C)c1Oc1nc(NC2CCN(CC(=O)N3CCOCC3)CC2)nc2cc(F)ccc12,0.577,> 16.4,41.1,71,< 2.51,,,,,,,,,,,,
Cc1cc(C#N)cc(C)c1Oc1nc(NC2CCN(Cc3ccc(S(N)(=O)=O)cc3)CC2)nc2ccsc12,,,,,,,,,,,0.0042,2.4,2,2.3,2.1,2,3
Cc1ccnc2c1NC(=O)c1cccnc1N2C1CC1 [NEVIRAPINE],,> 15,> 15,> 92,,1.03,5.1,6.69,≥ 7.7,0.191,≥ 5.41,6.3,31.1,40.7,>=46.9,1.2,>=32.9

# — ChEMBL document CHEMBL4765457, “Targeting dual tolerant regions of binding pocket: Discovery of novel morpholine-substituted diarylpyrimidines as potent HIV-1 NNRTIs with significantly improved water solubility” (Eur J Med Chem, 2020)
